What was measured:
[1] = human
[2] = 1-Day stability study of prodrugs in aqueous solution; type: physicochemical; conditions: aqueous solution 80 μg/mL, ambient storage
Procedure: The L-dopa phosphate prodrugs and the carbidopa phosphate prodrugs were evaluated in a stability study.

[3] = Phosphate prodrug solubility study in water; type: physicochemical; conditions: water, ambient, visual assessment
Procedure: The L-dopa phosphate prodrugs and the carbidopa phosphate prodrugs were evaluated in a solubility study. The solubility values of the phosphate prodrugs in water under ambient conditions were determined by visual assessment. Table 13-A reports the results of the study, including the measured values for L-dopa and carbidopa.

[4] = In vitro bioconversion study (blood), human; type: in vitro ADME; conditions: prodrug 2.5 μg/mL, 37° C.
Procedure: (§1) The in vitro bioconversion of the L-dopa phosphate prodrugs to L-dopa and the carbidopa phosphate prodrugs to carbidopa was evaluated in several studies. In brief, the L-dopa and carbidopa phosphate prodrugs (2.5 μg/mL) were incubated with tissue homogenate or fractions from rats, mini-pigs, or human, including blood, skin homogenate (3 mg/mL), liver microsomes (1 mg/mL), liver S9 fraction (1 mg/mL), kidney S9 fraction (1 mg/mL), and intestine S9 fractions (1 mg/mL). The reaction mixtures were incubated at 37° C. for 5 to 6 time points within 1 to 2 hours. At the end of each time point, the reaction mixtures were quenched by 2 to 3 volumes of 5% trichloroacetic acid in water. After quenching, the mixtures were centrifuged at 3000 rpm for 20 minutes, and the supernatants were analyzed by LC-MS for quantitation of the prodrug, L-dopa or carbidopa. The in vitro bioconversion was assessed by monitoring both time-dependent depletion of the prodrug and the formation of the corresponding L-dopa or carbidopa.

[5] = In vitro bioconversion study (blood), mini-pig; type: in vitro ADME; conditions: prodrug 2.5 μg/mL, 37° C.
Procedure: as §1

[6] = In vitro bioconversion study (skin homogenates), human; conditions: human skin homogenate 3 mg/mL, prodrug 2.5 μg/mL, 37° C.
[7] = In vitro bioconversion study (skin homogenates), rat; conditions: rat skin homogenate 3 mg/mL, prodrug 2.5 μg/mL, 37° C.
[8] = In vitro bioconversion study (skin homogenates), mini-pig; conditions: mini-pig skin homogenate 3 mg/mL, prodrug 2.5 μg/mL, 37° C.
[9] = In vitro bioconversion study (blood), rat; conditions: prodrug 2.5 μg/mL, 37° C.
Procedure: The in vitro bioconversion of the L-dopa phosphate prodrugs to L-dopa and the carbidopa phosphate prodrugs to carbidopa was evaluated in several studies. […] The reaction mixtures were incubated at 37° C. for 5 to 6 time points within 1 to 2 hours. At the end of each time point, the reaction mixtures were quenched by 2 to 3 volumes of 5% trichloroacetic acid in water. After quenching, the mixtures were centrifuged at 3000 rpm for 20 minutes, and the supernatants were analyzed by LC-MS for quantitation of the prodrug, L-dopa or carbidopa. The in vitro bioconversion was assessed by monitoring both time-dependent depletion of the prodrug and the formation of the corresponding L-dopa or carbidopa.

[10] = In vitro bioconversion study, human liver microsomes; type: in vitro ADME; conditions: human liver microsomes 1 mg/mL, prodrug 2.5 μg/mL, 37° C.
Procedure: as §1

Structure (SMILES)	CLp (plasma clearance), Value [1] [L/h]	CLp Levodopa [1] [L/h]	% Remaining After One Day ([2]; pH 6.5) [%]	Solubility ([3]; pH 7.1, Amorphous) [mg/mL]	L-Dopa or Carbidopa Formation [4]	T1/2 [4] [h]	L-Dopa or Carbidopa Formation [5]	T1/2 [5] [min]	L-Dopa or Carbidopa Formation [6]	T1/2 [6] [h]	L-Dopa or Carbidopa Formation [7]	T1/2 [7] [h]	L-Dopa or Carbidopa Formation [8]	T1/2 [8] [h]	L-Dopa or Carbidopa Formation [9]	T1/2 [9] [h]	% Remaining After One Day ([2]; pH 7.0) [%]	Solubility ([3]; pH 7.0, Crystalline) [mg/mL]	stability and formation of L-dopa or carbidopa [10]
C[C@@](Cc1ccc(O)c(O)c1)(NN)C(=O)O [Carbidopa, (2S)-3-(3,4-dihydroxyphenyl)-2-hydrazino-2-methylpropanoic acid]	18	–	–	–	–	–	–	–	–	–	–	–	–	–	–	–	–	–	–
N[C@@H](Cc1ccc(O)c(O)c1)C(=O)O [L-dopa, L-3,4-dihydroxyphenylalanine]	24	24	–	–	–	–	–	–	–	–	–	–	–	–	–	–	–	–	–
C[C@@](Cc1ccc(O)c(OP(=O)(O)O)c1)(NN)C(=O)O [Carbidopa 3′-phosphate, Carbidopa 3′-monophosphate]	–	–	>94	>96	Yes	0.967	Yes	8.9	Yes	10	Yes	12.1	Yes	6.88	Yes	0.342	–	–	–
N[C@@H](Cc1ccc(O)c(OP(=O)(O)O)c1)C(=O)O [L-dopa 3′-phosphate]	–	–	–	–	Yes	0.467	Yes	8.8	Yes	11.2	Yes	12.3	Yes	14.8	Yes	0.343	>99	>161	stable without formation of L-dopa or carbidopa observed

Source: patent US20240024338A1, “CARBIDOPA AND L-DOPA PRODRUGS AND METHODS OF USE” (AbbVie Inc., priority 2016, published 2024)
